The test system of series [1] is HepG2. The series can be described thus: Antiproliferative activity against human HepG2 cells measured after 48 hrs by MTT assay. The format is functional, cell-based. Conditions: HepG2, 48 h. (Formazan colour is commonly taken as a measure of viable cells.)
Series [2] deals with A549. The series can be described thus: Antiproliferative activity against human A549 cells measured after 48 hrs by MTT assay. It counts as functional, cell-based. Conditions: A549, 48 h.
For series [3], the system named is ADR5000 cell line. The series can be described thus: Cytotoxicity against human CEM/ADR5000 cells by XTT assay. The format is functional, cell-based.
The test system of series [4] is L02. Kind of series: Cytotoxicity against human L02 cells measured after 48 hrs by MTT assay. It counts as cell-based. Conditions: L02, 48 h.
Series [5] deals with MCF7. Kind of series: Antiproliferative activity against human MCF7 cells measured after 48 hrs by MTT assay. Conditions: MCF7, 48 h. It counts as functional, cell-based.
Series [6] deals with MDA-MB-231. The series can be described thus: Antiproliferative activity against human MDA-MB-231 cells measured after 48 hrs by MTT assay. It counts as functional, cell-based. Conditions: MDA-MB-231, 48 h.
Series [7] deals with CCRF-CEM. The series can be described thus: Cytotoxicity against human CCRF-CEM cells by XTT assay. It counts as functional, cell-based.
Series [8] deals with MCF7. The series can be described thus: Cell cycle arrest in human MCF7 cells assessed as accumulation at S phase at 10 uM measured after 48 hrs by propidium iodide staining based flow cytometry (reference value: 24.31%). It counts as functional. On the technique in general: In flow cytometry, cells or beads pass a laser one at a time.
Series [9] has as its system MCF7. The series can be described thus: Cell cycle arrest in human MCF7 cells assessed as accumulation at G1 phase at 10 uM measured after 48 hrs by propidium iodide staining based flow cytometry (reference value: 52.44%). It counts as functional.
Series [10] has as its system NCI/ADR-RES. Kind of series: Potentiation of adriamycin-induced antiproliferative activity against human MCF7/ADR cells assessed as fold reduction in adriamycin IC50 at 5 uM measured after 48 hrs by MTT assay. The format is functional.
The subject of series [11] is MCF7. The series can be described thus: Cell cycle arrest in human MCF7 cells assessed as accumulation at G2 phase at 5 uM measured after 48 hrs by propidium iodide staining based flow cytometry (reference value: 23.25%). The format is functional.
Series [12] has as its system MCF7. The series can be described thus: Cell cycle arrest in human MCF7 cells assessed as accumulation at G1 phase at 2.5 uM measured after 48 hrs by propidium iodide staining based flow cytometry (reference value: 52.44%). It counts as functional.
The subject of series [13] is MCF7. Kind of series: Cell cycle arrest in human MCF7 cells assessed as accumulation at G2 phase at 2.5 uM measured after 48 hrs by propidium iodide staining based flow cytometry (reference value: 23.25%). It counts as functional.
The test system of series [14] is MCF7. Kind of series: Cell cycle arrest in human MCF7 cells assessed as accumulation at S phase at 2.5 uM measured after 48 hrs by propidium iodide staining based flow cytometry (reference value: 24.31%). It counts as functional.
Series [15] in a line: Toxicity in human MCF7 cells assessed as inhibition of cell proliferation at 5 uM measured after 48 hrs by MTT assay. It counts as cell-based.
The test system of series [16] is MCF7. Kind of series: Cell cycle arrest in human MCF7 cells assessed as accumulation at G1 phase at 5 uM measured after 48 hrs by propidium iodide staining based flow cytometry (reference value: 52.44%). The format is functional.
For series [17], the system named is MCF7. The series can be described thus: Cell cycle arrest in human MCF7 cells assessed as accumulation at S phase at 5 uM measured after 48 hrs by propidium iodide staining based flow cytometry (reference value: 24.31%). The format is functional.
In series [18] the test system is MCF7. Kind of series: Potency index, ratio of artemisinin IC50 to test compound IC50 for human MCF7 cells. The format is functional.
Series [19] concerns MCF7. The series can be described thus: Cell cycle arrest in human MCF7 cells assessed as accumulation at G2 phase at 10 uM measured after 48 hrs by propidium iodide staining based flow cytometry (reference value: 23.25%). It counts as functional.

The term pIC50 denotes the IC50 on a negative log10 scale, so that one unit is a factor of ten. The inhibition is how much of the control response was suppressed.

pIC50: −log10 of the molar value.

For `C[C@H]1[C@@H](O)O[C@@H]2O[C@@]3(C)CC[C@H]4[C@H](C)CC[C@@H]1[C@@]24OO3` [ARTENIMOL], the negative-log IC50 (pIC50) in series [1] is 4.50; in [2], 4.34; in [3] it was 5.74; in series [4], 4.40; in series [5], 4.46; in series [6], 4.23. The pIC50 in series [7] was 6.06.
As to `C[C@@H]1CC[C@H]2[C@@H](C)C(OC(=O)c3c[nH]c4ccc(Cl)cc34)O[C@@H]3O[C@@]4(C)CC[C@@H]1[C@]32OO4` (some centres undefined), the Activity in series [8] was found to be 21.41%; in series [9], 39.61%; in series [11], 34.35%; in series [12], 48.36%; in [13], 27.4%; in series [14] it was 24.24%. For the same compound, the Activity in [16] was found to be 43.76%; in series [17], 21.89%; in [19] it was 38.97%. The negative logarithm of the IC50 (pIC50) in [1] was 4.97; in series [2] it was 5.21; in series [4] it was 4.51; in series [5], 5.28; in series [6], less than 4.00. In series [10], the “fold change (FC)” value amounted to 117. Besides, in series [15], the inhibition at 48 h, 5 µM stood at 32.1%. Besides, the “Ratio IC50” value in series [18] amounted to 10.

Source of the values: ChEMBL document CHEMBL4316608, “Artemisinin-indole and artemisinin-imidazole hybrids: Synthesis, cytotoxic evaluation and reversal effects on multidrug resistance in MCF-7/ADR cells” (Bioorg Med Chem Lett, 2019).
